# From patent US9914730B2, “Azaquinazoline inhibitors of Atypical protein Kinase C” (Ignyta, Inc., priority 2012, dated 2018)
# Target: T1, full-length human PKCι (Homo sapiens, UniProt P41743)
# T1 construct: Recombinant, full-length human PKCι expressed in Sf21 insect cells is also commercially available; purchased; host or cells: Sf21 insect cells
# T1 sequence (P41743 1-596): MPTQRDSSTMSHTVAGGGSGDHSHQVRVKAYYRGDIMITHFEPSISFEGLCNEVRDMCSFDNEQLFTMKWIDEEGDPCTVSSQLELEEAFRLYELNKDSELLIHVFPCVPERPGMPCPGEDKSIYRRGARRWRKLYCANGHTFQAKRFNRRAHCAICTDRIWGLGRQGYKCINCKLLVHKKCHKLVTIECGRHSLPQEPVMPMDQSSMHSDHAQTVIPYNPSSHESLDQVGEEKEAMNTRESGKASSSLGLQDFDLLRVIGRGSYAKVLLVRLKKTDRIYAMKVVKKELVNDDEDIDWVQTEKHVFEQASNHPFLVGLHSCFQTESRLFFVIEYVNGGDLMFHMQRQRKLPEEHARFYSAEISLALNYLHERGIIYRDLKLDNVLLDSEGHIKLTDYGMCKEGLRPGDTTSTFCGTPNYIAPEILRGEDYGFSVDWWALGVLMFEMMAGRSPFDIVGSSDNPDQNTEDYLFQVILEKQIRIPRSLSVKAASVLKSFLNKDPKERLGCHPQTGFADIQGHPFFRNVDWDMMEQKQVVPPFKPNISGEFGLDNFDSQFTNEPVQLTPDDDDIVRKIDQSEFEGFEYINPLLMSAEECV
# Assay: PKCι IC50 IMAP assay, full-length PKCι at 150 μM ATP
# Assay type: biochemical
# Details: read-out: IC50 in IMAP assay against full length PKCi at 150 μM ATP
# Summary of the method: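 Full-length human PKCι from Sf21 cells, typically 15 pM, with 100 nM 5FAM-PKCε pseudosubstrate peptide and 150 μM ATP (5× apparent KM), 60 min at room temperature, 4% DMSO. IMAP fluorescence polarisation read-out; inhibition normalised to no-compound and no-enzyme controls, IC50 from curve fit.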
row,SMILES,IC50
1,"COc1cncc2nc(-c3ccnc(Nc4ccccc4)c3)nc(N3CCNC(C(F)(F)F)C3)c12 (centres unmarked) [Example 231, {4-[5-Methoxy-4-(3-trifluoromethyl-piperazin-1-yl)-pyrido[3,4-d]pyrimidin-2-yl]-pyridin-2-yl}-phenyl-amine]",10000 to 40000 nM
2,"COc1cncc2nc(-c3ccnc(Nc4ccccc4)c3)nc(N3CCN[C@@H](CC#N)C3)c12 [Example 232, {(S)-4-[5-Methoxy-2-(2-phenylamino-pyridin-4-yl)-pyrido[3,4-d]pyrimidin-4-yl]-piperazin-2-yl}-acetonitrile]",100 to 1000 nM
3,"COc1cncc2nc(-c3ccnc(Nc4ccccc4)c3)nc(N3CCN[C@@H](CF)C3)c12 [Example 233, {4-[4-((R)-3-Fluoromethyl-piperazin-1-yl)-5-methoxy-pyrido[3,4-d]pyrimidin-2-yl]-pyridin-2-yl}-phenyl-amine]",100 to 1000 nM
4,"COc1cncc2nc(-c3ccnc(NC(=O)C4CC4)c3)nc(N3CCC(O)CC3)c12 [Example 234, Cyclo-propane-carboxylic acid {4-[4-(4-hydroxy-piperidin-1-yl)-5-methoxy-pyrido[3,4-d]pyrimidin-2-yl]-pyridin-2-yl}-amide]",100 to 1000 nM
5,"COc1cncc2nc(-c3ccnc(Nc4ccccc4)c3)nc(N3CCN[C@H](CF)C3)c12 [Example 235, {4-[4-((S)-3-Fluoro-methyl-piperazin-1-yl)-5-methoxy-pyrido[3,4-d]pyrimidin-2-yl]-pyridin-2-yl}-phenyl-amine]",100 to 1000 nM
6,COc1cncc2nc(-c3ccnc(Nc4ccccc4)c3)nc(N3CCN[C@@H](C4CC4)C3)c12 [Example 236],100 to 1000 nM
7,"COc1cncc2nc(-c3ccnc(Nc4c(F)ccc(F)c4F)c3)nc(N3CCN[C@@H](CF)C3)c12 [Example 237, {4-[4-((R)-3-Fluoromethyl-piperazin-1-yl)-5-methoxy-pyrido[3,4-d]pyrimidin-2-yl]-pyridin-2-yl}-(2,3,6-trifluoro-phenyl)-amine]",1000 to 10000 nM
8,"COc1cncc2nc(-c3ccnc(NC4CCCCC4)c3)nc(N3CCNCC3)c12 [Example 242, Cyclohexyl-[4-(5-methoxy-4-piperazin-1-yl-pyrido[3,4-d]pyrimidin-2-yl)-pyridin-2-yl]-amine]",< 100 nM
9,"c1cnc(Nc2cc(-c3nc(N[C@@H]4CCNC4)c4ccncc4n3)ccn2)cn1 [Example 243, {2-[2-(Pyrazin-2-ylamino)-pyridin-4-yl]-pyrido[3,4-d]pyrimidin-4-yl}-(R)-pyrrolidin-3-yl-amine]",1000 to 10000 nM
10,"COc1cncc2nc(-c3ccnc(Nc4ccccc4)c3)nc(N3CCC(CO)CC3)c12 [Example 244, {1-[5-Methoxy-2-(2-phenylamino-pyridin-4-yl)-pyrido[3,4-d]pyrimidin-4-yl]-piperidin-4-yl}-methanol]",1000 to 10000 nM
11,"COc1cncc2nc(-c3ccnc(Nc4ccccc4)c3)nc(N[C@@H]3CCN(CC(N)=O)C3)c12 [Example 245, 2-{3-[5-Methoxy-2-(2-phenylamino-pyridin-4-yl)-pyrido[3,4-d]pyrimidin-4-ylamino]-R-pyrrolidin-1-yl}-acetamide]",1000 to 10000 nM
12,"Clc1cncc2nc(-c3ccnc(Nc4ccccc4)c3)nc(N3CCNCC3)c12 [Example 246, [4-(5-Chloro-4-piperazin-1-yl-pyrido[3,4-d]pyrimidin-2-yl)-pyridin-2-yl]-phenyl-amine]",100 to 1000 nM
13,"Fc1ccccc1Nc1cc(-c2nc(N3CCNCC3)c3c(Cl)cncc3n2)ccn1 [Example 247, [4-(5-Chloro-4-piperazin-1-yl-pyrido[3,4-d]pyrimidin-2-yl)-pyridin-2-yl]-(2-fluoro-phenyl)-amine]",100 to 1000 nM
14,"Fc1ccccc1Nc1cc(-c2nc(N3CCNCC3)c3c(Nc4ccccc4F)cncc3n2)ccn1 [Example 248, (2-Fluoro-phenyl)-{2-[2-(2-fluoro-phenylamino)-pyridin-4-yl]-4-piperazin-1-yl-pyrido[3,4-d]pyrimidin-5-yl}-amine]",< 100 nM
15,"C[C@H]1CN(c2nc(-c3ccnc(Nc4ccccc4)c3)nc3cncc(Cl)c23)CCN1 [Example 250, {4-[5-Chloro-4-((S)-3-methyl-piperazin-1-yl)-pyrido[3,4-d]pyrimidin-2-yl]-pyridin-2-yl}-phenyl-amine]",100 to 1000 nM
16,"CC(=O)Nc1cc(-c2nc(N3CCNCC3)c3c(Cl)cncc3n2)ccn1 [Example 251, N-[4-(5-Chloro-4-piperazin-1-yl-pyrido[3,4-d]pyrimidin-2-yl)-pyridin-2-yl]-acetamide]",100 to 1000 nM
17,"Fc1cccc(Nc2cc(-c3nc(N4CCNCC4)c4c(Cl)cncc4n3)ccn2)c1F [Example 252, [4-(5-Chloro-4-piperazin-1-yl-pyrido[3,4-d]pyrimidin-2-yl)-pyridin-2-yl]-(2,3-difluoro-phenyl)-amine]",100 to 1000 nM

# Continued, values first:
row,IC50,SMILES
1,< 100 nM,"COc1cncc2nc(-c3ccnc(Nc4ccc(N(C)C)cc4)c3)nc(N[C@@H]3CCNC3)c12 [Example 226, N-{4-[5-Methoxy-4-((R)-pyrrolidin-3-ylamino)-pyrido[3,4-d]pyrimidin-2-yl]-pyridin-2-yl}-N′,N′-dimethyl-benzene-1,4-diamine]"
2,< 100 nM,"COc1cncc2nc(-c3ccnc(Nc4cccc(N5CCOCC5)c4)c3)nc(N[C@@H]3CCNC3)c12 [Example 227, {5-Methoxy-2-[2-(3-morpholin-4-yl-phenylamino)-pyridin-4-yl]-pyrido[3,4-d]pyrimidin-4-yl}-(R)-pyrrolidin-3-yl-amine]"
3,< 100 nM,"COc1cncc2nc(-c3ccnc(Nc4ccccc4F)c3)nc(N[C@@H]3CCNC3)c12 [Example 228, {2-[2-(2-Fluoro-phenylamino)-pyridin-4-yl]-5-methoxy-pyrido[3,4-d]pyrimidin-4-yl}-(R)-pyrrolidin-3-yl-amine]"
4,< 100 nM,"COc1cncc2nc(-c3ccnc(Nc4ccc(N5CCOCC5)cc4)c3)nc(N[C@@H]3CCNC3)c12 [Example 229, {5-Methoxy-2-[2-(4-morpholin-4-yl-phenylamino)-pyridin-4-yl]-pyrido[3,4-d]pyrimidin-4-yl}-(R)-pyrrolidin-3-yl-amine]"
5,< 100 nM,"COc1cncc2nc(-c3ccnc(Nc4ccc(F)cc4)c3)nc(N[C@@H]3CCNC3)c12 [Example 230, {2-[2-(4-Fluoro-phenyl-amino)-pyridin-4-yl]-5-methoxy-pyrido[3,4-d]pyrimidin-4-yl}-(R)-pyrrolidin-3-yl-amine]"
6,< 100 nM,"COc1cncc2nc(-c3ccnc(Nc4ccccc4)c3)nc(N[C@@H]3CCNC3)c12 [Example 238, [5-Methoxy-2-(2-phenylamino-pyridin-4-yl)-pyrido[3,4-d]pyrimidin-4-yl]-(R)-pyrrolidin-3-yl-amine]"
7,< 100 nM,"COc1cncc2nc(-c3ccnc(Nc4cnccn4)c3)nc(N[C@@H]3CCNC3)c12 [Example 239, {5-Methoxy-2-[2-(pyrazin-2-ylamino)-pyridin-4-yl]-pyrido[3,4-d]pyrimidin-4-yl}-(R)-pyrrolidin-3-yl-amine]"
8,< 100 nM,"COc1cncc2nc(-c3ccnc(NC(=O)c4cccs4)c3)nc(N[C@@H]3CCNC3)c12 [Example 240, Thiophene-2-carboxylic acid {4-[5-methoxy-4-((R)-pyrrolidin-3-ylamino)-pyrido[3,4-d]pyrimidin-2-yl]-pyridin-2-yl}-amide]"
9,< 100 nM,"COc1cncc2nc(-c3ccnc(NC4CCCC4)c3)nc(N3CCNCC3)c12 [Example 241, Cyclopentyl-[4-(5-methoxy-4-piperazin-1-yl-pyrido[3,4-d]pyrimidin-2-yl)-pyridin-2-yl]-amine]"
